Results as given in ChEMBL document CHEMBL1132364, “Structure-activity relationship of N-(phenylalkyl)cinnamides as novel NR2B subtype-selective NMDA receptor antagonists” (J Med Chem, 1999).

Key:
[1] = biological target: Glutamate NMDA receptor; Grin1/Grin2a (Rattus norvegicus, UniProt P35439+Q00959); assay: Antagonistic activity against N-methyl-D-aspartate glutamate receptor 1/2A.; assay type: functional
[2] = biological target: Glutamate NMDA receptor; Grin1/Grin2b (Rattus norvegicus, UniProt P35439+Q00960); assay: Antagonistic activity against N-methyl-D-aspartate glutamate receptor 1/2B.; assay type: functional
Chain of Glutamate NMDA receptor; Grin1/Grin2b (Q00960 whole entry, other chains not shown): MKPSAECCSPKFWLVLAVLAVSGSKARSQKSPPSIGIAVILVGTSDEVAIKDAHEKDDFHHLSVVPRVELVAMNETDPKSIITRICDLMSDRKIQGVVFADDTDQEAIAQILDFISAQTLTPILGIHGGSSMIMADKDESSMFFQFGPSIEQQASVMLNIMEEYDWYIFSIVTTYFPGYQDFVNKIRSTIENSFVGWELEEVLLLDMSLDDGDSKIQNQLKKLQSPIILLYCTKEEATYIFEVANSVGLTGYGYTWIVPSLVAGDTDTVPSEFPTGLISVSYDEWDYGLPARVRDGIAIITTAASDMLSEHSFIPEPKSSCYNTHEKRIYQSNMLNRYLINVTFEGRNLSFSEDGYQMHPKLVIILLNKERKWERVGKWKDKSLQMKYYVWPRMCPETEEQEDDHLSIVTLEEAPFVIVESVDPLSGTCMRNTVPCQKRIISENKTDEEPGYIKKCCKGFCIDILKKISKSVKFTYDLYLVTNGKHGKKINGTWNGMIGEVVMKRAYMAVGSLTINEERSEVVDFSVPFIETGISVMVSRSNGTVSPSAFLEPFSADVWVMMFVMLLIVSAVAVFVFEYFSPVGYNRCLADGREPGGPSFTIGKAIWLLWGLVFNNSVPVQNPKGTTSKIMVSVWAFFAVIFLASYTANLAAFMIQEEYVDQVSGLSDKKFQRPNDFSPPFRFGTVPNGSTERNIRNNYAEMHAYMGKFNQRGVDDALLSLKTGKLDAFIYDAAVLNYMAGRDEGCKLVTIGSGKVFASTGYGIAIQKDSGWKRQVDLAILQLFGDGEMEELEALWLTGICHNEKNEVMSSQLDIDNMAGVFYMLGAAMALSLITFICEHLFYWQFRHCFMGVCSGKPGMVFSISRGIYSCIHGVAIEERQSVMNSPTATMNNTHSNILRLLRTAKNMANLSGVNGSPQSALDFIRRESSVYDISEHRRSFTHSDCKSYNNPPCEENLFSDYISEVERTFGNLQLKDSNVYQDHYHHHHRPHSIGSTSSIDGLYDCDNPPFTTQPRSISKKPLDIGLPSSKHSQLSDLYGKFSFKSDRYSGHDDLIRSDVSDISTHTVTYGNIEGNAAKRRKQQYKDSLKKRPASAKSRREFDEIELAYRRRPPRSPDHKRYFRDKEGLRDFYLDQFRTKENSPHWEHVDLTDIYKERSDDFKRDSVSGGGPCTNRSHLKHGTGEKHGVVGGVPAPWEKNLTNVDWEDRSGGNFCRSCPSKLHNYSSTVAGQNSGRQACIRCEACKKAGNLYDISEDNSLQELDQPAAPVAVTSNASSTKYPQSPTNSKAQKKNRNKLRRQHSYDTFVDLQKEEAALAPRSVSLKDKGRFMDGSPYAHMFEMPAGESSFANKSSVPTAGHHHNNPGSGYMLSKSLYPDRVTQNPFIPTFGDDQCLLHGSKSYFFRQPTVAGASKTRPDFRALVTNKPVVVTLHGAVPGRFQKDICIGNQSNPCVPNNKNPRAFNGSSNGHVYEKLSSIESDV

[3] = biological target: Glutamate NMDA receptor; Grin1/Grin2c (Rattus norvegicus, UniProt P35439+Q00961); assay: Antagonistic activity against N-methyl-D-aspartate glutamate receptor 1/2C.; assay type: functional
Chain of Glutamate NMDA receptor; Grin1/Grin2c (Q00961 whole entry, other chains not shown): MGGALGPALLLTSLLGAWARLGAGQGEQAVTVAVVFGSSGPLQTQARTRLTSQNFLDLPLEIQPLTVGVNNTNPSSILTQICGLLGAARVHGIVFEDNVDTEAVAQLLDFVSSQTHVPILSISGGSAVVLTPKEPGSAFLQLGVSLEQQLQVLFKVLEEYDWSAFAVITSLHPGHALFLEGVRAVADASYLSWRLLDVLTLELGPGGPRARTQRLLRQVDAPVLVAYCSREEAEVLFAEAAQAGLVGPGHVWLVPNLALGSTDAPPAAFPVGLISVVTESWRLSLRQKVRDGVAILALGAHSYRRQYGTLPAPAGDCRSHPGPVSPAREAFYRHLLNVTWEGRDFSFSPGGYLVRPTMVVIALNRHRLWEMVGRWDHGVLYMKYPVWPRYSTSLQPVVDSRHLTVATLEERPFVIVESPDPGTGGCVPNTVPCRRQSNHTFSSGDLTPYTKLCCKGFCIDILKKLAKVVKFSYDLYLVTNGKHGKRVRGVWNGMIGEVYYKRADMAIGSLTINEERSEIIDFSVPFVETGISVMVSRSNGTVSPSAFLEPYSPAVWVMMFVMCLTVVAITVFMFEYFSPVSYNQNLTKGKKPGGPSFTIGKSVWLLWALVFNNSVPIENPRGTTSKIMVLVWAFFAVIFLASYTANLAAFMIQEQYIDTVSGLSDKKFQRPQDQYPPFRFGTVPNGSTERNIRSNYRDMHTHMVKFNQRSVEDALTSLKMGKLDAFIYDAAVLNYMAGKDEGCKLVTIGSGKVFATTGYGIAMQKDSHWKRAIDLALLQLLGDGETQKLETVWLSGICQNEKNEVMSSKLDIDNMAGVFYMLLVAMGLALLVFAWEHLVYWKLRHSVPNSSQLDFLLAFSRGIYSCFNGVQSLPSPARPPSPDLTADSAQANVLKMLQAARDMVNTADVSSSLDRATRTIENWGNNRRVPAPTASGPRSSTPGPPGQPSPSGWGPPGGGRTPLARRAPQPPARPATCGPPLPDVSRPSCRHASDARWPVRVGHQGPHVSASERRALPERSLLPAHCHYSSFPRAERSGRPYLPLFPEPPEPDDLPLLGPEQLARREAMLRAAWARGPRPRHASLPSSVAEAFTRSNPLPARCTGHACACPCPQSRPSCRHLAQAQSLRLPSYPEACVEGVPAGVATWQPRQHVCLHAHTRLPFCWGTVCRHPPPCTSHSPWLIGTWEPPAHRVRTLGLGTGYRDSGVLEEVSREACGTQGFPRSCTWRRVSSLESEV

[4] = biological target: T1, Alpha-1A adrenergic receptor (Homo sapiens, UniProt P35348); assay: Inhibition of Alpha-1 adrenergic receptor
T1 sequence (P35348 whole entry): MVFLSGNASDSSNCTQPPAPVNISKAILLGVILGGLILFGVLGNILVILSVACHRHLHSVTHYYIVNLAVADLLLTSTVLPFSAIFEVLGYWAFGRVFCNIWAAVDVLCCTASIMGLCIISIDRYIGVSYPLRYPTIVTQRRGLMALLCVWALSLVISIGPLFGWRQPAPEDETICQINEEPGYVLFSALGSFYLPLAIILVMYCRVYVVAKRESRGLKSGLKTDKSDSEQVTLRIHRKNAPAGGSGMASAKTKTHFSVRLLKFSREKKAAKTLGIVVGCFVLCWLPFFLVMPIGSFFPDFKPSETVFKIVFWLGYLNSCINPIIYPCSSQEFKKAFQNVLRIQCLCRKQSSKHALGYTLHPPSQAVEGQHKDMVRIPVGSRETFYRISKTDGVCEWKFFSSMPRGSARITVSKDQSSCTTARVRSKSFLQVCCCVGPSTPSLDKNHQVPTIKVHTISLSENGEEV

[5] = biological target: Epidermal growth factor receptor (Homo sapiens, UniProt P00533); assay: Inhibition of Epidermal growth factor receptor autophosphorylation

Chain of Glutamate NMDA receptor; Grin1/Grin2a (Q00959 whole entry, other chains not shown): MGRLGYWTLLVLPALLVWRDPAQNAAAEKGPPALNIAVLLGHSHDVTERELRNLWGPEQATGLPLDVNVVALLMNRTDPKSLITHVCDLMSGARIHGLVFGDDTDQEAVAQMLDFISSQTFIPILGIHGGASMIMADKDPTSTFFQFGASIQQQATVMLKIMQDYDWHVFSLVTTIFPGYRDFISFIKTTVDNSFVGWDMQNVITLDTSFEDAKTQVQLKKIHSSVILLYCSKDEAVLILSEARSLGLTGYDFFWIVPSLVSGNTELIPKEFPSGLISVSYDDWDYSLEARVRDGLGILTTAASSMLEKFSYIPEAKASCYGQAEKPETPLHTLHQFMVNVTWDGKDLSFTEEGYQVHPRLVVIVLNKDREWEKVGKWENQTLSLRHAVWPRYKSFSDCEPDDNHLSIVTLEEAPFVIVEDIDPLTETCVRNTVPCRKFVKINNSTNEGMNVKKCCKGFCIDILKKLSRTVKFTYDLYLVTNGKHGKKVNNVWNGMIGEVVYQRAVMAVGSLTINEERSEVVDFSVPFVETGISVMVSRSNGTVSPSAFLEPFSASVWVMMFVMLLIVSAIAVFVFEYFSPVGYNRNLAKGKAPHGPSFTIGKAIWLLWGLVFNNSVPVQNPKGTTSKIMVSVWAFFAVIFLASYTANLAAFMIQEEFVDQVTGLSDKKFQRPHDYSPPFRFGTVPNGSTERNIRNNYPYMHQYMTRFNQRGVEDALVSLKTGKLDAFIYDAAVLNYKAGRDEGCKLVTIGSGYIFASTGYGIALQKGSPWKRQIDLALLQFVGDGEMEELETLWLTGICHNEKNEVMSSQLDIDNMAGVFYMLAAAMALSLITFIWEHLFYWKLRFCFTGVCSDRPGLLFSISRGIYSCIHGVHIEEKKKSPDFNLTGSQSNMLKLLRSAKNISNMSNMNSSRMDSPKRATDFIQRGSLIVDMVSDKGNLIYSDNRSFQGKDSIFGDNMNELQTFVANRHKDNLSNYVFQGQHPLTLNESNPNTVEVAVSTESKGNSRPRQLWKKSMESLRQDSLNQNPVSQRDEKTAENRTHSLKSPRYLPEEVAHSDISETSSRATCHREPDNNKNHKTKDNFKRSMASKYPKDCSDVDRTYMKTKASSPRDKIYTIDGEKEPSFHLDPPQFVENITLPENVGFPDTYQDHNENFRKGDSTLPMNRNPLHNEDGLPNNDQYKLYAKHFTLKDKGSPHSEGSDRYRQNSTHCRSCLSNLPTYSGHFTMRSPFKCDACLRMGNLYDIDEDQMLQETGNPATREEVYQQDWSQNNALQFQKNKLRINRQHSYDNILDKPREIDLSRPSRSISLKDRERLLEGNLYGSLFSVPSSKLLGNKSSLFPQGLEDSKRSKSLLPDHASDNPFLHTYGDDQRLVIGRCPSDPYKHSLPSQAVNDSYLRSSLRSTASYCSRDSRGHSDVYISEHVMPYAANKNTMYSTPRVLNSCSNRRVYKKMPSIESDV

IC50 [1] | IC50 [2] | IC50 [3] | IC50 [4] | Compound | IC50 [5]
> 100 µM | 80 µM | > 100 µM | – | N#C/C(=C\c1ccccc1)C(=O)NCCCCc1ccccc1 | –
> 100 µM | – | > 100 µM | > 100 µM | O=C(/C=C/c1ccc(O)cc1)N1CCC(Cc2ccccc2)CC1 | –
> 100 µM | 19 µM | > 100 µM | > 100 µM | O=C(/C=C/c1ccc(Cl)cc1Cl)NCCc1ccc(O)cc1 | –
49 µM | 32 µM | > 100 µM | – | CCN(CC)CCOc1ccc(CCNC(=O)/C=C/c2ccc(Cl)cc2)cc1 | –
23 µM | 1.8 µM | > 100 µM | – | O=C(CCCCCc1ccccc1)CCc1ccc(O)cc1 | –
> 100 µM | 0.43 µM | > 100 µM | – | O=C(CCc1ccc(O)cc1)NCCCCc1ccccc1 | –
> 100 µM | 46 µM | > 100 µM | – | N#C/C(=C\C(=O)NCCc1ccc(O)cc1)c1ccccc1 | –
> 100 µM | 0.125 µM | > 100 µM | – | O=C(/C=C/c1ccc(O)cc1)NCCCCc1ccc(Cl)cc1 | –
> 100 µM | 0.077 µM | > 100 µM | > 100 µM | O=C(/C=C/c1ccc(O)cc1)NCCCCc1ccccc1 | –
> 100 µM | 8.3 µM | > 100 µM | – | O=C(/C=C/c1ccc(Cl)cc1)NCCc1ccccc1O | –
> 100 µM | 24 µM | > 100 µM | – | O=C(/C=C/c1ccccc1)NCCCCc1ccccc1 | –
52 µM | 0.009 µM | – | – | C[C@@H](CN1CCC(Cc2ccccc2)CC1)[C@@H](O)c1ccc(O)cc1 | –
> 100 µM | 1.5 µM | > 100 µM | – | O=C(/C=C/c1ccc(O)cc1)NCCc1ccccc1 | –
> 100 µM | 0.68 µM | > 100 µM | – | O=C(/C=C/c1ccccc1)NCCc1ccc(O)cc1 | –
45 µM | 52 µM | > 100 µM | – | O=C(O)COc1ccc(CCNC(=O)/C=C/c2ccc(Cl)cc2)cc1 | –
> 100 µM | 0.29 µM | > 100 µM | – | N#C/C(=C\c1ccc(O)cc1)C(=O)NCCCCc1ccccc1 | –
> 100 µM | 0.56 µM | > 100 µM | > 100 µM | N#C/C(=C\c1ccc(O)c(O)c1)C(=O)NCCCCc1ccccc1 | –
> 100 µM | 0.66 µM | 60 µM | – | N#C/C(=C\c1ccc(O)c(O)c1)C(=O)NCCCc1ccccc1 | –
19 µM | 45 µM | 100 µM | – | N#C/C(=C\c1ccc(O)c(O)c1)C(=O)NCc1ccccc1 | –
> 100 µM | 90 µM | > 100 µM | – | N#C/C(=C\c1ccc(O)c(O)c1)C(=O)Nc1ccccc1 | –
78 µM | 3.4 µM | > 100 µM | – | N#C/C(=C\c1ccc(Cl)cc1)C(=O)NCCc1ccc(O)cc1 | –
> 100 µM | 9 µM | > 100 µM | – | N#C/C(=C\C(=O)NCCc1ccc(O)cc1)c1ccc(Cl)cc1 | –
> 100 µM | 0.33 µM | > 100 µM | – | O=C(/C=C/c1ccc(O)cc1)NCCc1ccc(Cl)cc1 | –
> 100 µM | > 100 µM | > 100 µM | – | O=C(/C=C/c1ccc(Cl)cc1)NCCc1ccccc1 | –
> 100 µM | 0.17 µM | > 100 µM | – | O=C(/C=C/c1ccc(Cl)cc1)NCCc1ccc(O)cc1 | –
> 100 µM | 7.4 µM | > 100 µM | – | O=C(/C=C/c1ccc(Cl)cc1)NCCc1cccc(O)c1 | –
– | – | – | 0.1 µM | C[C@H]([C@@H](O)c1ccc(O)cc1)N1CCC(Cc2ccccc2)CC1 [(S,R)-IFENPRODIL] | –
> 100 µM | – | > 100 µM | – | C[C@@H]([C@@H](O)c1ccc(O)cc1)N1CCC(O)(c2ccccc2)CC1 [TRAXOPRODIL] | –

Compound | IC50 [1] | IC50 [2] | IC50 [3] | IC50 [4] | IC50 [5]
N#C/C(=C\c1cccc(O)c1)C(=O)NCCCCc1ccccc1 | > 100 µM | > 100 µM | > 100 µM | – | –
N#C/C(=C\c1ccc(F)cc1)C(=O)NCCCCc1ccccc1 | > 100 µM | > 100 µM | > 100 µM | – | –
N#C/C(=C\c1ccc(O)c(O)c1)C(=O)NCCc1ccccc1 | > 100 µM | 1.7 µM | > 100 µM | – | < 0.625 µM
O=C(/C=C/c1cc(Cl)ccc1Cl)NCCCCc1ccccc1 | > 100 µM | > 100 µM | > 100 µM | – | –
O=C(/C=C/c1ccc(Cl)cc1)NCCc1ccc(Cl)cc1 | > 100 µM | > 100 µM | > 100 µM | – | –
N#C/C(=C\c1ccc(Cl)cc1)C(=O)NCCCCc1ccccc1 | > 100 µM | > 100 µM | > 100 µM | – | –
O=C(/C=C/c1ccc(O)cc1)NCCc1ccc(O)cc1 [N-P-COUMAROYL TYRAMINE] | > 100 µM | 21 µM | > 100 µM | – | –
